Data taken from US7846941B2, “Compounds modulating c-kit and c-fms activity and uses therefor” (Plexxikon, Inc., priority 2005, dated 2010).

Columns and labels:
c-kit = c-kit (Homo sapiens, UniProt P10721); assay: c-kit assays of Examples 40 and 41 (AlphaScreen and 33P kinase assays, M-07e proliferation and phosphorylation)
Procedure: The M-07e proliferation is stimulated by SCF (Stem Cell Factor), which binds and activates c-Kit tyrosine kinase receptor. Inhibitors of c-Kit kinase reduce or eliminate the SCF mediated kinase activation, resulting in reduced cell proliferation of SCF stimulated cells. This inhibition is measured by the effect of compound concentration on cell growth to assess IC50 values.
This cell based assay was also used to assess phosphorylation. Samples were prepared with compounds as described for the growth inhibition assay only M-07e cells were seeded at 2×10^5 cells per well in a 96 well filter plate. Cells were incubated for 1 hour at 37° C. with the compounds as described above, and then stimulated by adding SCF to a final concentration of 50 ng/ml and incubated for 10 minutes at 37° C. […] Detection antibody (100 μl) was added to the plate and samples incubated for 1 hour at room temperature, then washed 4 times with wash buffer. HRP anti-rabbit antibody (100 μl) was added and samples incubated for 30 minutes at room temperature, then washed 4 times with wash buffer. Stabilized chromogen (100 μl) was added and samples incubated for 15-25 minutes at room temperature, then washed 4 times with wash buffer. Stop solution (100 μl) was added and the samples read on a Wallac Victor reader at 450 nm. The absorbance was plotted against the compound concentration and the IC50 concentration was determined.
Compounds to be tested were dissolved in DMSO to a concentration of 20 mM. These were diluted 30 μl into 120 μl of DMSO (4 mM) and 1 μl was added to an assay plate. These were then serially diluted 1:3 (50 μl to 100 μl DMSO) for a total of 8 points. Plates were prepared such that each kinase reaction is 20 μl in 1× kinase buffer (50 mM HEPES, pH 7.2, 5 mM MgCl2, 5 mM MnCl2, 0.01% NP-40, 0.2% BSA), 5% DMSO and 10 μM ATP. Substrate was 100 nM biotin-(E4Y)3 (Open Source Biotech, Inc.). C-kit kinase was at 0.1 ng per sample. After incubation of the kinase reaction for 1 hour at room temperature, 5 μl of donor beads (Streptavidin coated beads (Perkin Elmer Life Science) final concentration 1 μg/ml) in stop buffer (50 mM EDTA in 1× kinase buffer) was added, the sample was mixed and incubated for 20 minutes at room temperature before adding 5 μl of acceptor beads (PY20 coated beads (Perkin Elmer Life Science) final concentration 1 μg/ml) in stop buffer. The samples were incubated for 60 minutes at room temperature and the signal per well was read on AlphaQuest reader.

[1] = test system: cells with activating c-kit mutations; details: mutations in the catalytic region of c-kit; cited from earlier work

Chain of c-kit (P10721 with tags, fused parts or gaps): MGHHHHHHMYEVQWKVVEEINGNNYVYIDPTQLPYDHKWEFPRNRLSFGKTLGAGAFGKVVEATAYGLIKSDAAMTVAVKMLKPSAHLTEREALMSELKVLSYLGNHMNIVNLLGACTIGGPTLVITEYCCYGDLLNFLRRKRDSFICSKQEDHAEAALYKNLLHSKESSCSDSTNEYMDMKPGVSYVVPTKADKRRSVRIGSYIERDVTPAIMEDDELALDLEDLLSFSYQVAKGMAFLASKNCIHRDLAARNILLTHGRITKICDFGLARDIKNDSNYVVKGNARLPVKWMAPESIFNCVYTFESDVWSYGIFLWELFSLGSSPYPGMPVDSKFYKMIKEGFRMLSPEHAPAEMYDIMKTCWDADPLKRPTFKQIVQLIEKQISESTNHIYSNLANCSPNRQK

SMILES | IC50 (c-kit) [µM] | inhibition of cells with c-kit mutations [1]
Fc1nc(NCc2ccc(Cl)cc2)ccc1Cc1c[nH]c2ncccc12 [Compound P-0082, (4-Chloro-benzyl)-[6-fluoro-5-(1H-pyrrolo[2,3-b]pyridin-3-ylmethyl)-pyridin-2-yl]-amine] | < 1 | –
O=C(Nc1ccc(Cc2c[nH]c3ncccc23)cn1)c1ccc(C(F)(F)F)cc1 [Compound P-0072, N-[5-(1H-Pyrrolo[2,3-b]pyridin-3-ylmethyl)-pyridin-2-yl]-4-trifluoromethyl-benzamide] | < 1 | –
c1cnc2[nH]cc(Cc3ccc(NCC4CCCCC4)nc3)c2c1 [Compound P-0033, Cyclohexylmethyl-[5-(1H-pyrrolo[2,3-b]pyridin-3-ylmethyl)-pyridin-2-yl]-amine] | < 1 | –
FC(F)(F)c1ccc(CNc2ccc(Cc3c[nH]c4ncc(OCCN5CCCC5)cc34)cn2)cc1 [Compound P-0064, {5-[5-(2-Pyrrolidin-1-yl-ethoxy)-1H-pyrrolo[2,3-b]pyridin-3-ylmethyl]-pyridin-2-yl}-(4-trifluoromethyl-benzyl)-amine] | < 1 | –
Clc1ccc(CNc2ccc(Cc3c[nH]c4nccc(Cl)c34)cn2)cc1 [Compound P-0009, [5-(4-chloro-1H-pyrrolo[2,3-b]pyridin-3-ylmethyl)-pyridin-2-yl]-(4-chloro-benzyl)-amine] | < 1 | –
Clc1ccc(COc2ccc(Cc3c[nH]c4ncccc34)cn2)cc1 [Compound P-0056, 3-[6-(4-Chloro-benzyloxy)-pyridin-3-ylmethyl]-1H-pyrrolo[2,3-b]pyridine] | < 1 | –
FC(F)(F)c1ccc(CNc2ccc(Cc3c[nH]c4ncc(OCCN5CCOCC5)cc34)cn2)cc1 [Compound P-0065, {5-[5-(2-Morpholin-4-yl-ethoxy)-1H-pyrrolo[2,3-b]pyridin-3-ylmethyl]-pyridin-2-yl}-(4-trifluoromethyl-benzyl)-amine] | < 1 | –
Oc1cnc2[nH]cc(Cc3ccc(NCc4ccc(C(F)(F)F)cc4)nc3)c2c1 [Compound P-0061, 3-[6-(4-Trifluoromethyl-benzylamino)-pyridin-3-ylmethyl]-1H-pyrrolo[2,3-b]pyridin-5-ol] | < 1 | –
O=C(Nc1ccc(Cc2c[nH]c3ncccc23)cn1)c1ccc(F)cc1 [Compound P-0073, 4-Fluoro-N-[5-(1H-pyrrolo[2,3-b]pyridin-3-ylmethyl)-pyridin-2-yl]-benzamide] | < 1 | –
CC(C)CNc1ccc(Cc2c[nH]c3ncccc23)cn1 [Compound P-0028, Isobutyl-[5-(1H-pyrrolo[2,3-b]pyridin-3-ylmethyl)-pyridin-2-yl]-amine] | < 1 | –
CC(C)Nc1ccc(C(=O)c2c[nH]c3ncccc23)cn1 [Compound P-0024, (6-Isopropylamino-pyridin-3-yl)-(1H-pyrrolo[2,3-b]pyridin-3-yl)-methanone] | < 1 | –
FC(F)(F)c1ccc(CNc2ccc(Cc3c[nH]c4ncccc34)cn2)cc1 [Compound P-0003, [5-(1H-Pyrrolo[2,3-b]pyridin-3-ylmethyl)-pyridin-2-yl]-(4-trifluoromethyl-benzyl)-amine] | < 1 | –
Oc1cnc2[nH]cc(Cc3ccc(NCc4ccc(Cl)cc4)nc3)c2c1 [Compound P-0062, 3-[6-(4-Chloro-benzylamino)-pyridin-3-ylmethyl]-1H-pyrrolo[2,3-b]pyridin-5-ol] | < 1 | –
FC(F)(F)c1cccc(COc2ccc(Cc3c[nH]c4ncccc34)cn2)c1 [Compound P-0057, 3-[6-(3-Trifluoromethyl-benzyloxy)-pyridin-3-ylmethyl]-1H-pyrrolo[2,3-b]pyridine] | < 1 | –
COc1cnc2[nH]cc(Cc3ccc(NCc4ccc(C(F)(F)F)cc4)nc3)c2c1 [Compound P-0053, [5-(5-Methoxy-1H-pyrrolo[2,3-b]pyridin-3-ylmethyl)-pyridin-2-yl]-(4-trifluoromethyl-benzyl)-amine] | < 1 | –
O=C(c1ccc(NCC2CCCCC2)nc1)c1c[nH]c2ncccc12 [Compound P-0031, [6-(Cyclohexylmethyl-amino)-pyridin-3-yl]-(1H-pyrrolo[2,3-b]pyridin-3-yl)-methanone] | < 1 | –
CC(C)(C)Oc1ccc(Cc2c[nH]c3ncccc23)cn1 [Compound P-0020, 3-(6-tert-Butoxy-pyridin-3-ylmethyl)-1H-pyrrolo[2,3-b]pyridine] | < 1 | –
CC(C)CNc1ccc(C(=O)c2c[nH]c3ncccc23)cn1 [Compound P-0025, (6-Isobutylamino-pyridin-3-yl)-(1H-pyrrolo[2,3-b]pyridin-3-yl)-methanone] | < 1 | –

SMILES | IC50 (c-kit) [µM] | inhibition of cells with c-kit mutations [1]
c1cnc2[nH]cc(Cc3ccc(NCC4CC4)nc3)c2c1 [Compound P-0032, Cyclopropylmethyl-[5-(1H-pyrrolo[2,3-b]pyridin-3-ylmethyl)-pyridin-2-yl]-amine] | < 1 | –
Clc1ccc(CNc2ccc(Cc3c[nH]c4ncc(Cl)cc34)cn2)cc1 [Compound P-0059, (4-Chloro-benzyl)-[5-(5-chloro-1H-pyrrolo[2,3-b]pyridin-3-ylmethyl)-pyridin-2-yl]-amine] | < 1 | –
O=C(c1ccc(NCc2cccc(F)c2)nc1)c1c[nH]c2ncccc12 [Compound P-0016, [6-(3-Fluoro-benzylamino)-pyridin-3-yl]-(1H-pyrrolo[2,3-b]pyridin-3-yl)-methanone] | < 1 | –
CCN(CC)CCCOc1cnc2[nH]cc(Cc3ccc(NCc4ccc(Cl)cc4)nc3)c2c1 [Compound P-0069, (4-Chloro-benzyl)-{5-[5-(3-diethylamino-propoxy)-1H-pyrrolo[2,3-b]pyridin-3-ylmethyl]-pyridin-2-yl}-amine] | < 1 | –
Clc1ccc(NCc2ccc(Cc3c[nH]c4ncccc34)cn2)cc1 [Compound P-0078, (4-Chloro-phenyl)-[5-(1H-pyrrolo[2,3-b]pyridin-3-ylmethyl)-pyridin-2-ylmethyl]-amine] | < 1 | –
CCN(CC)CCOc1cnc2[nH]cc(Cc3ccc(NCc4ccc(C(F)(F)F)cc4)nc3)c2c1 [Compound P-0060, {5-[5-(2-Diethylamino-ethoxy)-1H-pyrrolo[2,3-b]pyridin-3-ylmethyl]-pyridin-2-yl}-(4-trifluoromethyl-benzyl)-amine] | < 1 | –
Clc1ccc(CNc2ccc(Cc3c[nH]c4ncc(OCCN5CCOCC5)cc34)cn2)cc1 [Compound P-0063, (4-Chloro-benzyl)-{5-[5-(2-morpholin-4-yl-ethoxy)-1H-pyrrolo[2,3-b]pyridin-3-ylmethyl]-pyridin-2-yl}-amine] | < 1 | –
COc1cnc2[nH]cc(Cc3ccc(NCc4ccc(Cl)cc4)nc3)c2c1 [Compound P-0058, (4-Chloro-benzyl)-[5-(5-methoxy-1H-pyrrolo[2,3-b]pyridin-3-ylmethyl)-pyridin-2-yl]-amine] | < 1 | –
Cc1ccc(NC(=O)c2ccc(CN3CCN(C)CC3)cc2)cc1Nc1nccc(-c2cccnc2)n1 [STI571] | – | did not inhibit
O=C(c1ccc(Nc2cccc(OCc3ccccc3)c2)nc1)c1c[nH]c2ncccc12 [Compound P-0026, [6-(3-Benzyloxy-phenylamino)-pyridin-3-yl]-(1H-pyrrolo[2,3-b]pyridin-3-yl)-methanone] | < 1 | –
O=C(c1ccc(NCC2CC2)nc1)c1c[nH]c2ncccc12 [Compound P-0030, [6-(Cyclopropylmethyl-amino)-pyridin-3-yl]-(1H-pyrrolo[2,3-b]pyridin-3-yl)-methanone] | < 1 | –
C[C@H](Nc1ccc(Cc2c[nH]c3ncccc23)cn1)c1ccc(Cl)cc1 [Compound P-0075, [(S)-1-(4-Chloro-phenyl)-ethyl]-[5-(1H-pyrrolo[2,3-b]pyridin-3-ylmethyl)-pyridin-2-yl]-amine] | < 1 | –
CCN(CC)CCCOc1cnc2[nH]cc(Cc3ccc(NCc4ccc(C(F)(F)F)cc4)nc3)c2c1 [Compound P-0066, {5-[5-(3-Diethylamino-propoxy)-1H-pyrrolo[2,3-b]pyridin-3-ylmethyl]-pyridin-2-yl}-(4-trifluoromethyl-benzyl)-amine] | < 1 | –
FC(F)(F)c1ccc(CNc2ccc(Cc3c[nH]c4ncc(Cl)cc34)cn2)cc1 [Compound P-0054, [5-(5-Chloro-1H-pyrrolo[2,3-b]pyridin-3-ylmethyl)-pyridin-2-yl]-(4-trifluoromethyl-benzyl)-amine] | < 1 | –
O=C(Nc1ccc(Cc2c[nH]c3ncccc23)cn1)c1ccc(Cl)cc1 [Compound P-0074, 4-Chloro-N-[5-(1H-pyrrolo[2,3-b]pyridin-3-ylmethyl)-pyridin-2-yl]-benzamide] | < 1 | –
COc1nc(NCc2ccc(C(F)(F)F)cc2)ccc1Cc1c[nH]c2ncccc12 [Compound P-0012, [6-Methoxy-5-(1H-pyrrolo[2,3-b]pyridin-3-ylmethyl)-pyridin-2-yl]-(4-trifluoromethyl-benzyl)-amine] | < 1 | –
Clc1cccc(COc2ccc(Cc3c[nH]c4ncccc34)cn2)c1 [Compound P-0055, 3-[6-(3-Chloro-benzyloxy)-pyridin-3-ylmethyl]-1H-pyrrolo[2,3-b]pyridine] | < 1 | –
O=S(=O)(Nc1ccc(Cc2c[nH]c3ncccc23)cn1)c1ccc(C(F)(F)F)cc1 [Compound P-0071, N-[5-(1H-Pyrrolo[2,3-b]pyridin-3-ylmethyl)-pyridin-2-yl]-4-trifluoromethyl-benzenesulfonamide] | < 1 | –
